Patent US8399512B2, “Biocompatible biodegradable fumagillin analog conjugates” (Mersana Therapeutics, Inc., priority 2007, dated 2013)
pIC50: −log10 of the molar value.

Tests used:
human MetAP-2 enzyme = human MetAP-2 enzyme (Homo sapiens, UniProt P50579); assay: MetAP-2 inhibition (release of AMC from Met-Gly-Pro-AMC); format: biochemical
Experimental: The test samples were evaluated for their ability to inhibit human MetAP-2 enzyme. The compounds were added at varying concentrations to human MetAP-2 enzyme (6 nM) in a buffered medium containing 20 mM Hepes, pH 7.4, 100 mM KCl, 0.1 mM Co(II), 10% glycerol, 5 mg/ml of L-Amino acid oxidase, 10 mg/ml of peroxidase, 10 mg/ml of o-dianisidine, and 2 mM of Met-Ser-Ala at 37° C. After 10 minutes incubation the reaction is started by adding the substrate Met-Gly-Pro-AMC to 2 mM and the release of AMC is measured with a Decan Plate reader (Excitation at 345 nm, emission at 445 nm). The kinetic data is recorded at 30 sec intervals for 30 min. Table 1 lists some of the conjugates and compounds tested along with their approximate IC50 values for inhibiting Met-AP2.

[1] = test system: human umbilical vein endothelial cells (HUVECs); assay: Inhibitory effect on HUVEC cell growth (MTS/PES colorimetry); format: cell-based; conditions: Homo sapiens, 120 h, cultured 5 days, MTS/PES absorbance 490 nm
Experimental: Using human umbilical vein endothelial cells (HUVECs), the effect of the fumagillin analog conjugates and the fumagillin analogs on cell growth was evaluated.
The HUVECs were added to M199 medium supplemented with 20% FBS, after which the cells were incubated at 37° C. under 5% CO2. 96-well plates were seeded at 5,000 cells/well in a total volume of 100 μL. The cells were left overnight to attach to the plate. Cells were subcultured a maximum of 15 times before being discarded.
To evaluate the inhibitory activity of the fumagillin conjugate or the fumagillin analog alone on the growth of HUVEC cells, the conjugate or fumagillin analog was dissolved in the required amount of 0.9% saline, vortexed briefly to wet and disperse the solids, followed by vortexing for a total of 30 min. […] The cells were treated with the conjugate solution or fumagillin analog solution at various concentrations ranging from 30 nM to 0.01 nM, and cultured for 5 days at 37° C.
Colorimetry was performed to determine the extent of cell growth by adding 20 μL of MTS/PES reagent to each well, incubation for 4 h at 37° C. followed by measuring the absorbance at 490 nm.

B16F10 tumor cells [2] = assay: Tumor growth delay in B16F10 mouse melanoma; format: in vivo; conditions: 80 mg/kg fumagillin analog equiv., IV, qod × 4, BDF1 mice
B16F10 tumor cells [3] = assay: Tumor growth delay in B16F10 mouse melanoma; format: in vivo; conditions: IV, q3d × 4, BDF1 mice
Experimental: BDF1 female mice (N=6) with 1×10^6 B16F10 tumor cells positioned subcutaneous in the flank were treated with various fumagillin conjugates of the invention. Tumor growth was monitored in parallel with positive and negative controls of cyclophosphamide and saline respectively. Treatment began when tumors reached an average size of 80-120 mg and tumor volumes were measured two times per week until animals reached an endpoint tumor volume of 2 grams or 45 days, whichever came first. Conjugates were administered as solutions in saline intravenously at dose levels of 30-100 mg/kg (expressed as fumagillin analog equivalents) on a schedule of q3dx4. Treatment outcomes were assessed in terms of percent tumor growth delay (% TGD), (see FIG. 1) defined as the percent increase in median time to endpoint for mice treated with an agent compared to those treated with saline.

[4] = Open field activity levels in mice; format: in vivo, mouse; conditions: C57B1/6 mice, 50-100 mg/kg for four weeks; conjugates IV, TNP-470 subcutaneously; versus saline
Experimental: C57B1/6 female mice (N=8) were housed until they reached 11 weeks of age. Animals were then regularly administered with fumagillin conjugates or TNP-470 and their activity levels monitored in an open field arena. Activity levels were assessed with saline as a control. Conjugates were administered as solutions in saline intravenously at dose levels of 50-100 mg/kg (expressed as fumagillin-analog equivalents) and TNP-470 was administered subcutaneously at dose levels of 50-100 mg/kg. Dosing was performed for four weeks on schedules ranging from q2d to once weekly, and activity levels were observed four times throughout the study: (1) prior to compound administration, (2) after one week of dosing, (3) after two weeks of dosing, and (4) following the final week of dosing. Animals were placed in the open field arena for 10 minutes per trial and their activity monitored in terms of travel distance, peripheral squares crossed, center squares crossed, and rearing events.

[5] = 80 mg/kg fumagillin analog equiv.

Sequence of human MetAP-2 enzyme (P50579 whole entry): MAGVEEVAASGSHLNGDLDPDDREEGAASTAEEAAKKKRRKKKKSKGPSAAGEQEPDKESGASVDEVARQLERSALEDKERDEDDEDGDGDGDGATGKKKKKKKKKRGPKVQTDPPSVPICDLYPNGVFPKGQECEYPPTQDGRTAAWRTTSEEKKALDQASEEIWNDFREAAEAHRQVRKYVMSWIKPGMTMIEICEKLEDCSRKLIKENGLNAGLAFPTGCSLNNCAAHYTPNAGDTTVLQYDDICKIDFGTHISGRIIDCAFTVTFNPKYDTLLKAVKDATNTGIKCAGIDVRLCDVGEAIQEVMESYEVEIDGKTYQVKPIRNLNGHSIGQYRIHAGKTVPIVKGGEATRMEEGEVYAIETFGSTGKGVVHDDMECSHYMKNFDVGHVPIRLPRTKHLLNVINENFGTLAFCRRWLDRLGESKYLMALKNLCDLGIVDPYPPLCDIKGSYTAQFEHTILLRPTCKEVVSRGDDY

Row | SMILES | pIC50 (human MetAP-2 enzyme) | pIC50 [1] | % TGD (B16F10 tumor cells [3]; [5]) | other results
1 | CO[C@H]1C([C@@]2(C)O[C@@H]2CC=C(C)C)[C@]2(CC[C@H]1OC(=O)N[C@@H](C(N)=O)C(C)C)CO2 (some centres unmarked) [PPI-2458, reference compound] | > 8.00 | – | – | –
2 | CO[C@H]1[C@H](C2(C)O[C@@H]2CC=C(C)C)[C@]2(CC[C@H]1OC(=O)NCc1ccc(N)cc1)CO2 (some centres unmarked) [Compound 8] | > 8.00 | > 7.60 | – | –
3 | CO[C@H]1[C@H](C2(C)O[C@@H]2CC=C(C)C)[C@]2(CC[C@H]1NC(=O)C13CCC(C(=O)O)(CC1)CC3)CO2 (some centres unmarked) [Compound 40] | – | 7.00 to 7.60 | – | % TGD (B16F10 tumor cells [2]): 20-50%
4 | CO[C@H]1[C@H](C2(C)O[C@@H]2CC=C(C)C)[C@]2(CC[C@H]1OC(=O)NCCc1ccc(NC(C)=O)cc1)CO2 (some centres unmarked) [Compound 18] | – | > 7.60 | 5-20% | –
5 | CO[C@H]1[C@H](C2(C)O[C@@H]2CC=C(C)C)[C@]2(CC[C@H]1OC(=O)NC(=O)CSCCNC(=O)C1CCCN1C(=O)OCC1c3ccccc3-c3ccccc31)CO2 (some centres unmarked) [Compound 31] | – | > 7.60 | 20-50% | –
6 | CO[C@H]1[C@H](C2(C)O[C@@H]2CC=C(C)C)[C@]2(CC[C@H]1OC(=O)C1CCC(CNC(=O)OCC3c4ccccc4-c4ccccc43)CC1)CO2 (some centres unmarked) [Compound 33] | – | < 7.52 | – | % TGD (B16F10 tumor cells [3]; 65 mg/kg fumagillin analog equiv.): 5-20%
7 | CO[C@H]1[C@H](C2(C)O[C@@H]2CC=C(C)C)[C@]2(CC[C@H]1OC(=O)/C=C/c1ccccc1)CO2 (some centres unmarked) [Compound 13] | – | < 7.52 | 5-20% | –
8 | CO[C@H]1C([C@@]2(C)O[C@@H]2CC=C(C)C)[C@]2(CC[C@H]1OC(=O)NC(=O)CCl)CO2 (some centres unmarked) [TNP-470, reference compound] | > 8.00 | – | – | rearing-event activity levels [4]: increased rearing-event activity levels
9 | CO[C@H]1[C@H](C2(C)O[C@@H]2CC=C(C)C)[C@]2(CC[C@H]1OC(=O)N[C@H](C)c1ccccc1)CO2 (some centres unmarked) [Compound 12] | – | > 7.60 | 5-20% | –
10 | CO[C@H]1[C@H](C2(C)O[C@@H]2CC=C(C)C)[C@]2(CC[C@H]1OC(=O)N1CC3CC1CN3)CO2 (some centres unmarked) [Compound 26] | – | > 7.60 | – | % TGD (B16F10 tumor cells [3]; 60 mg/kg fumagillin analog equiv.): 5-20%
11 | CO[C@@H]1[C@H](NC(=O)NC(=O)CSc2ccc(N)cc2)CC[C@]2(CO2)[C@H]1[C@@]1(C)O[C@@H]1CC=C(C)C [Compound 39] | > 8.00 | > 7.60 | – | –
12 | CO[C@H]1[C@H](C2(C)O[C@@H]2CC=C(C)C)[C@]2(CC[C@H]1OC(=O)NCCc1ccc(NC(=O)[C@H](C)N)cc1)CO2 (some centres unmarked) [Compound 51] | > 8.00 | > 7.60 | – | –
